For data set [1] the following is noted: for initial conductivity reading at 3 seconds: first reading 3 seconds; for percent of NaF dissolved in the first 3 seconds: from conductivity; for percent of salt dissolved in first 3 seconds: room temperature, FIG. 5; for 3 sec Dissolution: Table 4, 3 sec; for 200 sec Dissolution: Table 4, 200 sec; for 400 sec Dissolution: Table 4, 400 sec; for 800 sec Dissolution: Table 4, 800 sec. How it is done: Such a test is a standard test that is well understood in the scientific community. In this experiment, at room temperature, 35 mg of commercially available solid cubic sodium fluoride was added to a beaker. A conductivity probe was placed into the beaker. 25 mL of ultrapure water was added to the beaker, instantaneously submerging the conductivity probe. Conductivity data can be collected every 3 seconds on the probe.
This is tested by adding to a beaker 56 mg of the given salt to be tested. To this is added a conductivity probe. As the salt is added, the solution is stirred.
The dissolution rate of NaF crystals correlates to the conductivity of NaF in solution. That is to say, as salt dissolves in water, the conductivity of the salt solution increases. […] Conductivity is utilized to test the rate of dissolution. The conductivity of ultrapure water is approximately […] when no ions are present. The first reading on the conductivity meter can be made 3 seconds after the experiment begins.

Data set [2] is described as follows: Hall density (ASTM Standard B212-99).
Data set [3] is described as follows: Surface area (BET method) normalized to mass. Format: physicochemical. The text has this: Further characterization of the HSA NaF crystals compared to the solid cubic commercially available crystals of sodium fluoride examined the surface area (BET method) normalized to the mass of the crystals. […] Use of either of the Hall density of the surface area normalized to mass allows for a quantitative mechanism to differentiate the crystal formation.

Where two headings read alike, the source gives them in different places.

With `[F-].[Na+]` [85% ethanol formulation, sodium fluoride], in data set [1] (FIG. 7A), the “initial conductivity reading at 3 seconds” value is 2,068 μS/cm and the “percent of NaF dissolved in the first 3 seconds” value (from here on “percent of NaF dissolved”) is “approximately 79%”.

In turn, `[F-].[Na+]` [HSA NaF crystals, sodium fluoride] showed a Hall density in data set [2] (listed as HSA NaF hopper crystals) of 0.68 ± 0.04 g/mL. Further, the “percent of salt dissolved in first 3 seconds” value in data set [1] (35 mg in 25 mL ultrapure water, listed as HSA crystal NaF) is listed as “approximately 90%”. In data set [1] (listed as High Surface Area), the “3 sec Dissolution” value is ~2,600, the “200 sec Dissolution” value is on record as ~2,625, the “400 sec Dissolution” value was ~2,700 and the “800 sec Dissolution” value is reported as ~2,750. Besides, in data set [1] (conductivity as a function of time), the “rate of dissolution in aqueous environment compared with commercial cubic crystals” value is “greater rate than commercially available cubic crystals”. Besides, the “time to reach virtual maximum release” value in data set [1] (dissolution in water) is 3 s. Further, in data set [3] (listed as hopper crystals), the “surface area to mass ratio” value was 0.22±0.04 m^2/g.

`[F-].[Na+]` [commercial NaF, sodium fluoride] gave a Hall density in data set [2] (listed as Commercial solid cubic crystals of sodium fluoride) of 0.86 ± 0.03 g/mL. In data set [1] (35 mg in 25 mL ultrapure water, listed as commercially available solid cubic sodium fluoride), the “percent of salt dissolved in first 3 seconds” value is recorded as “approximately 33%”. Further, in data set [1] (FIG. 7A), the “conductivity after all of the salt dissolved” value is 2,605 μS/cm, the “time before all the NaF dissolved” value is given as “About 500 seconds”, the “initial conductivity reading at 3 seconds” value was 1,127 μS/cm and the “percent of NaF dissolved” value is about 43%. For the same compound, in data set [1] (listed as Ordinary), the “3 sec Dissolution” value is reported as ~1,000, the “200 sec Dissolution” value is ~1,175, the “400 sec Dissolution” value was ~1,500 and the “800 sec Dissolution” value is listed as ~2,500. Further, the “time for ordinary crystal to reach the concentration of HSA crystal's virtual maximum release” value in data set [1] (dissolution in water) is “more than ten minutes”. Moreover, the “surface area to mass ratio” value in data set [3] (listed as commercial crystals) came to 0.12±0.02 m^2/g.

Consider `[F-].[Na+]` [crystals made from precipitation into 90% ethanol] [sodium fluoride], for which, in data set [1] (FIG. 7A), the “percent of NaF dissolved” value turned out to be 60%.

As to `[F-].[Na+]` [sodium fluoride], in data set [1] (35 mg in 25 mL ultrapure water), the “peak conductivity of sodium fluoride solution” value is listed as “approximately 3,000 μS/cm”.

Values taken from patent publication US20250236530A1, “ACCELERATED TOOTH REMINERALIZATION TECHNOLOGY” (Creighton University, priority 2022, published 2025).
